Measured values as given in US20140249135A1, “PIM KINASE INHIBITORS AND METHODS OF THEIR USE” (NOVARTIS AG, priority 2007, published 2014).

Assays:
Pim3 kinase = Pim3 kinase (Homo sapiens, UniProt Q86V86); assay: Pim3 ATP depletion assay; assay type: biochemical; details: read-out: IC50 (μM) PIM3
KDR kinase = KDR kinase (Homo sapiens, UniProt P35968); assay: KDR AlphaScreen assay; details: KDR IC50 (μM)
[1] = biological target: T1, human full length PKCE enzyme (Homo sapiens, UniProt Q02156); assay: In vitro PKCE assay; assay type: biochemical; details: 10 nM enzyme, 40 uM peptide substrate, 20 uM ATP, KinaseGlo Plus readout; read-out: PKCε IC50
T1 construct: human full length PKCE enzyme purchased from InVitrogen; purchased InVitrogen
T1 sequence (Q02156 1-737): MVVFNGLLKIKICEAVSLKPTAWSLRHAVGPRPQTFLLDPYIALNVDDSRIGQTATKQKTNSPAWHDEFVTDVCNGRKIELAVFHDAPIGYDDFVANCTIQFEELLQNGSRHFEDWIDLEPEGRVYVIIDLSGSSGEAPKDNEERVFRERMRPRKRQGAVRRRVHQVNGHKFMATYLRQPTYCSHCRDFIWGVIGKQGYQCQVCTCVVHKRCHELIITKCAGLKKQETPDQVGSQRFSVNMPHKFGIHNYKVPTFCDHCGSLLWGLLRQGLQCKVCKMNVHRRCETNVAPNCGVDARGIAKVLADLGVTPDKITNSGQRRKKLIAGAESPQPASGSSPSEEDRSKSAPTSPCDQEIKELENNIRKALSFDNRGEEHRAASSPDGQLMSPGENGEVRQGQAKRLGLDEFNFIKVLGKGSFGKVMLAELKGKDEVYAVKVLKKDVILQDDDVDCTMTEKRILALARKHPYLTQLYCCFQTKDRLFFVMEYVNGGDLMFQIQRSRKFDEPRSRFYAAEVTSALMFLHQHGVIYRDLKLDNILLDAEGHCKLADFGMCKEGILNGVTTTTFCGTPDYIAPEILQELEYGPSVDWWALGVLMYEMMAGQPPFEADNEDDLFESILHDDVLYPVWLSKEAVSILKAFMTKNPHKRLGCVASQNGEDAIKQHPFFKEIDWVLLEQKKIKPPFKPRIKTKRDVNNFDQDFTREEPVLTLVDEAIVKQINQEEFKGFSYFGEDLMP

Pim2 kinase = Pim2 kinase (Homo sapiens, UniProt Q9P1W9); assay: Pim2 ATP depletion assay; assay type: biochemical; details: read-out: IC50 (μM) PIM2;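 note: Luciferase-based luminescent readout of ATP remaining after PIM2 phosphorylates a BAD peptide, final 5 nM enzyme, 4 µM ATP, 10 µM peptide, 2.5% DMSO, run to roughly half ATP consumption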
Pim2 kinase, sequence (Q9P1W9 whole entry): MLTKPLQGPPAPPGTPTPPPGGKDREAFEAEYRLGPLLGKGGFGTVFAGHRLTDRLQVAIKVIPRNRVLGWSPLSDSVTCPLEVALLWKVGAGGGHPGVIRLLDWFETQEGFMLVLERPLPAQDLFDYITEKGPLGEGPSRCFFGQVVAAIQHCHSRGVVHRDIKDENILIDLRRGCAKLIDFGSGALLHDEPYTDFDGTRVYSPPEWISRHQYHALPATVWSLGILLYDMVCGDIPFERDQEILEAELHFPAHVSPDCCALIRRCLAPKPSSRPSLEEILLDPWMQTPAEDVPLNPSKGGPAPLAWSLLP

Pim1 kinase = Pim1 kinase (Homo sapiens, UniProt P11309); assay: Pim1 ATP depletion assay; assay type: biochemical; details: Pim1 ATP depletion assay; read-out: IC50 (μM) PIM1;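 note: Luciferase-luciferin luminescence readout of residual ATP after PIM1 transfers phosphate to a peptide substrate, 40 µM ATP added, reaction run to roughly half ATP consumption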
Pim1 kinase, sequence (P11309 whole entry): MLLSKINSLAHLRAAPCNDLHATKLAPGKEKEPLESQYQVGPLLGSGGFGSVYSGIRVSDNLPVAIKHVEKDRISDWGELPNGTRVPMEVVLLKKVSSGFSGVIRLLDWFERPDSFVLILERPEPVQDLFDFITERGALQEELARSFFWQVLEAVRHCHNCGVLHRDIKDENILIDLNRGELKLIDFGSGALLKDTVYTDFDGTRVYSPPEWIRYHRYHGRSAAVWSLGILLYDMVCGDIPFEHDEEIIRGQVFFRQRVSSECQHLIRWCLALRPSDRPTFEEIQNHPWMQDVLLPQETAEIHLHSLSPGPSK

KDR kinase, sequence (P35968 20-1356): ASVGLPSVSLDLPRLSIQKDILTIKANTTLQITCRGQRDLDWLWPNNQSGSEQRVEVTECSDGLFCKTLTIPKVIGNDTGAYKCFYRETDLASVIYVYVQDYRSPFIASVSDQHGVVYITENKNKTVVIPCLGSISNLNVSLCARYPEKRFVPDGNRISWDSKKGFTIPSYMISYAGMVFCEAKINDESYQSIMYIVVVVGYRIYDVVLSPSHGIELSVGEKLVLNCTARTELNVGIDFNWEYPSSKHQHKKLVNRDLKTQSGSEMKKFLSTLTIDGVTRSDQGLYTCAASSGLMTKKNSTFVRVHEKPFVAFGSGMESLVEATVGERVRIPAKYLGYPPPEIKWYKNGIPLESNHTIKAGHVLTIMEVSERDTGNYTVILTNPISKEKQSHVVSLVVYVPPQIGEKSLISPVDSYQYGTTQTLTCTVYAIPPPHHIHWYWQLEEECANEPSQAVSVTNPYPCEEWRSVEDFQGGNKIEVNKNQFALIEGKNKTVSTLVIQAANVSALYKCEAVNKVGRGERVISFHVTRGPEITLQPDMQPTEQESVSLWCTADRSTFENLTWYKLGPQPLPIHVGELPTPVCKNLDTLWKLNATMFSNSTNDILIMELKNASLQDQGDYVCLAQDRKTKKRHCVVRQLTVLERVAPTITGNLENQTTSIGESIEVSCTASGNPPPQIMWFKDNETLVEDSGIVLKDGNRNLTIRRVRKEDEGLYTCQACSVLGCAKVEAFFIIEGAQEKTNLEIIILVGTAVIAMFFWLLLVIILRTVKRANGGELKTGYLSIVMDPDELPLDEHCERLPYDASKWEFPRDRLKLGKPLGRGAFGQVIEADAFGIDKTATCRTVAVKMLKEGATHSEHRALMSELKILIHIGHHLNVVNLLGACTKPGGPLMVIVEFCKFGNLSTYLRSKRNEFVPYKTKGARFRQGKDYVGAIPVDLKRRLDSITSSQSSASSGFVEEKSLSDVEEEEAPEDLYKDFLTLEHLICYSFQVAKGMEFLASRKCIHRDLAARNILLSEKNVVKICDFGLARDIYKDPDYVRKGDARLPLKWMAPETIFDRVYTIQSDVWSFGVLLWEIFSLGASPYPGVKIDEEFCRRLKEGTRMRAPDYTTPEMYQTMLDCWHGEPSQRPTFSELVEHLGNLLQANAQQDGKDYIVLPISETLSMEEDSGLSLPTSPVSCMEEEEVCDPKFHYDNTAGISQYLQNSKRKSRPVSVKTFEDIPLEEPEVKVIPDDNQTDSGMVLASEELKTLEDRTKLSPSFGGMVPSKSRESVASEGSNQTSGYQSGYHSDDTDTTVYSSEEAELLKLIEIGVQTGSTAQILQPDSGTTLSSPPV

SMILES	IC50 (Pim3 kinase) [µM]	IC50 (KDR kinase) [µM]	IC50 [1] [nM]	IC50 (Pim2 kinase) [µM]	IC50 (Pim1 kinase) [µM]
COc1ccc(-c2cnc(N)c(C(=O)Nc3ccccc3N3CCC(N)CC3)n2)cc1 [Example 381, 3-amino-6-(4-methoxy-phenyl)-pyrazine-2-carboxylic acid [2-(4-amino-piperidin-1-yl)-phenyl]-amide]	< 1	1 to 10	< 1000	< 1	< 1
Nc1ncc(-c2ccccc2F)nc1C(=O)Nc1ccccc1N1CCNCC1 [Example 383, 3-amino-6-(2-fluoro-phenyl)-pyrazine-2-carboxylic acid (2-piperazin-1-yl-phenyl)-amide]	< 1	1 to 10	< 1000	1 to 10	< 1
Nc1ncc(-c2ccoc2)nc1C(=O)Nc1ccccc1N1CCNCC1 [Example 384, 3-amino-6-furan-3-yl-pyrazine-2-carboxylic acid (2-piperazin-1-yl-phenyl)-amide]	1 to 10	1 to 10	< 1000	1 to 10	< 1
NC(=O)c1cccc(-c2cnc(N)c(C(=O)Nc3ccccc3N3CCNCC3)n2)c1 [Example 385, 3-amino-6-(3-carbamoyl-phenyl)-pyrazine-2-carboxylic acid (2-piperazin-1-yl-phenyl)-amide]	< 1	1 to 10	< 1000	1 to 10	< 1
COc1ccc(-c2cnc(N)c(C(=O)Nc3ccccc3N3CCNCC3)n2)cc1 [Example 386, 3-amino-6-(4-methoxy-phenyl)-pyrazine-2-carboxylic acid (2-piperazin-1-yl-phenyl)-amide]	< 1	1 to 10	< 1000	1 to 10	< 1
Nc1ncc(-c2ccccc2Oc2ccccc2)nc1C(=O)Nc1ccccc1N1CCNCC1 [Example 387, 3-amino-6-(2-phenoxy-phenyl)-pyrazine-2-carboxylic acid (2-piperazin-1-yl-phenyl)-amide]	1 to 10	10 to 25	1000 to 10000	> 25	1 to 10
Cc1cccc(-c2cnc(N)c(C(=O)Nc3ccccc3N3CCNCC3)n2)c1 [Example 388, 3-amino-6-m-tolyl-pyrazine-2-carboxylic acid (2-piper-azin-1-yl-phenyl)-amide]	< 1	< 1	< 1000	1 to 10	< 1
COc1ncccc1-c1cnc(N)c(C(=O)Nc2ccccc2N2CCNCC2)n1 [Example 390, 3-amino-6-(2-methoxy-pyridin-3-yl)-pyrazine-2-carboxylic acid (2-piperazin-1-yl-phenyl)-amide]	1 to 10	1 to 10	< 1000	> 25	< 1
COc1ncc(-c2cnc(N)c(C(=O)Nc3ccccc3N3CCNCC3)n2)cn1 [Example 391, 3-amino-6-(2-methoxy-pyrimidin-5-yl)-pyrazine-2-carboxylic acid (2-piperazin-1-yl-phenyl)-amide]	1 to 10	> 25	1000 to 10000	> 25	1 to 10
Cc1ccc(-c2ccc(N)c(C(=O)Nc3cnccc3N3CCC[C@H](N)C3)n2)c(F)c1 [Example 406, (S)-3-amino-N-(4-(3-aminopiperidin-1-yl)pyridin-3-yl)-6-(2-fluoro-4-methylphenyl)picolinamide]	< 1	> 25	1000 to 10000	< 1	< 1
Nc1ncc(-c2ccc(N)c(C(=O)Nc3cnccc3N3CCC[C@H](N)C3)n2)cn1 [Example 411, 3-amino-6-(2-amino-pyrimidin-5-yl)-pyridine-2-carboxylic acid ((S)-3-amino-3,4,5,6-tetrahydro-2H-[1,4′]bipyridinyl-3′-yl)-amide]	< 1	> 25	10000 to 25000	< 1	< 1
Nc1ncc(-c2ccccc2)nc1C(=O)Nc1cc(C(=O)c2ccccc2)ccc1N1CCCC(N)C1 (centres unmarked) [Example 435, 3-amino-6-phenyl-pyrazine-2-carboxylic acid [2-(3-amino-piperidin-1-yl)-5-benzoyl-phenyl]-amide]	1 to 10	< 1	10000 to 25000	1 to 10	1 to 10
Nc1ncc(-c2ccccc2)nc1C(=O)Nc1cc(C(=O)c2ccccc2)ccc1N1CCC(N)CC1 [Example 436, 3-amino-6-phenyl-pyrazine-2-carboxylic acid [2-(4-amino-piperidin-1-yl)-5-benzoyl-phenyl]-amide]	1 to 10	1 to 10	1000 to 10000	> 25	1 to 10
COc1ccc(N2CCC(N)CC2)c(NC(=O)c2nc(-c3ccccc3)cnc2N)c1 [Example 437, 3-amino-6-phenyl-pyrazine-2-carboxylic acid [2-(4-amino-piperidin-1-yl)-5-methoxy-phenyl]-amide]	< 1	1 to 10	< 1000	< 1	< 1
Nc1ncc(-c2ccccc2F)nc1C(=O)Nc1cc(C(=O)c2ccccc2)ccc1N1CCNCC1 [Example 438, 3-amino-6-(2-fluoro-phenyl)-pyrazine-2-carboxylic acid (5-benzoyl-2-piperazin-1-yl-phenyl)-amide]	1 to 10	1 to 10	> 25000	> 25	1 to 10
Nc1ncc(-c2ccccc2F)nc1C(=O)Nc1cc(C(=O)c2ccccc2)ccc1N1CCC(N)CC1 [Example 439, 3-amino-6-(2-fluoro-phenyl)-pyrazine-2-carboxylic acid [2-(4-amino-piperidin-1-yl)-5-benzoyl-phenyl]-amide]	1 to 10	1 to 10	1000 to 10000	> 25	1 to 10
Cc1cnc(N)c(C(=O)Nc2cc(C(=O)c3ccccc3)ccc2N2CCNCC2)n1 [Example 440, 3-amino-6-methyl-pyrazine-2-carboxylic acid (5-benzoyl-2-piperazin-1-yl-phenyl)-amide]	10 to 25	1 to 10	> 25000	> 25	> 25
COc1ccc(-c2cnc(N)c(C(=O)Nc3cc(C(=O)c4ccccc4)ccc3N3CCNCC3)n2)cc1 [Example 441, 3-amino-6-(4-methoxy-phenyl)-pyrazine-2-carboxylic acid (5-benzoyl-2-piperazin-1-yl-phenyl)-amide]	1 to 10	< 1	10000 to 25000	> 25	1 to 10
Nc1ccc(-c2cnc(N)c(C(F)(F)F)c2)nc1C(=O)Nc1cnccc1N1CCC[C@H](N)C1 [Example 482, 5,6′-Diamino-5′-trifluoromethyl-[2,3′]bipyridinyl-6-carboxylic acid (3-amino-3,4,5,6-tetrahydro-2H-[1,4′]bipyridinyl-3′-yl)-amide]	< 1	10 to 25	> 25000	< 1	< 1
